Experimental findings from US8563741B2, “CDK inhibitors containing a zinc binding moiety” (Curis, Inc., priority 2007, dated 2013) are described below.

The structures appear in SMILES notation. pIC50: −log10 of the molar value. Some results are limits rather than exact numbers.

Common to all, as to type: biochemical
The target in one test is T1, CDK9/cyclinT1 (Homo sapiens, UniProt P50750).
T1 construct: C-terminal 6His-tagged, full-length recombinant, human cdk9 (MW=44 kDa); 6His (C); made in house; host or cells: Sf21 insect cells (baculovirus)
T1 sequence (P50750 whole entry): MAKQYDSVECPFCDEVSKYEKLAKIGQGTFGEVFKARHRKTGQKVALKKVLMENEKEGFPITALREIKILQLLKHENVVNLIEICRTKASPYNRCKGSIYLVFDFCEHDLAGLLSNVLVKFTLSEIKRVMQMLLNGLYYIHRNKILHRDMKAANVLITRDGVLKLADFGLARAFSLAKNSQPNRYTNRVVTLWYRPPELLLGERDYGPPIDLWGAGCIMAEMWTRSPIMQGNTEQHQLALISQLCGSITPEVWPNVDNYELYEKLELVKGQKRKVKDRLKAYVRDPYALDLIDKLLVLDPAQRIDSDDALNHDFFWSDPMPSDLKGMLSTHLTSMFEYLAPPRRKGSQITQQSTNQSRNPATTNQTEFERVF
T1 sequence (O60563 whole entry partner): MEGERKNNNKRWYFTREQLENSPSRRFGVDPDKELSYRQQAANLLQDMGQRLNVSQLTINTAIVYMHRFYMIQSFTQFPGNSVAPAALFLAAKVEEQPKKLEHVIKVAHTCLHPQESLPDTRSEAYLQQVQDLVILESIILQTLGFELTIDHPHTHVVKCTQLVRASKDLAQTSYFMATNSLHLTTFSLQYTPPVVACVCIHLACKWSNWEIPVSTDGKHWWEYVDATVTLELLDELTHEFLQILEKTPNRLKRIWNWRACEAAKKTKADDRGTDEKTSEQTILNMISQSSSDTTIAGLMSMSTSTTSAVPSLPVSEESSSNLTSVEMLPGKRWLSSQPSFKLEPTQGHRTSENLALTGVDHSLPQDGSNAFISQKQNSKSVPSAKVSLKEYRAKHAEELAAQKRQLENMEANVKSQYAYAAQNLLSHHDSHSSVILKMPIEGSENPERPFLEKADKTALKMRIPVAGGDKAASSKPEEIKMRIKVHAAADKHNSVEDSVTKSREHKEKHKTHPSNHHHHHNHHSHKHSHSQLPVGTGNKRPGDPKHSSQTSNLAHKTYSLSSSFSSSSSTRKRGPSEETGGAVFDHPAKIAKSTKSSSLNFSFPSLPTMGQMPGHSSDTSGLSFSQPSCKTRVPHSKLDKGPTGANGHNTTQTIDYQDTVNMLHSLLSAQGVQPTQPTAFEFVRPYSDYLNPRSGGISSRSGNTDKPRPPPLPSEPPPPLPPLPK
In words: CDK activity assay with p33 ATP, CDK9/cyclinT1. Conditions: 1 μM ATP. The procedure: CDK9/cyclinT1 (Accession Number for CDK9; GenBank AF517840, for Cyclin T1; GenBank NM_001240)
C-terminal 6His-tagged, full-length recombinant, human cdk9 (MW=44 kDa) were co-expressed with untagged, full-length human cyclin T1 (MW=80.79 kDa) with baculovirus system in Sf21 insect cells. Recombinant protein complex was purified with Ni^2+/NTA agarose. Purity of recombinant protein was measured to be 50% by SDS-PAGE and Coomassie blue staining Specific Activity of purified enzyme was measured to be186 U/mg, where one unit of cdk9/cyclin T1 activity is defined as 1 nmol phosphate incorporated into 100 μM PDKtide ([…]) (SEQ ID NO. 3), per minute at 30° C. with a final ATP concentration of 100 μM. Enzyme was stored at a concentration of 0.1 mg/ml in 50 mM Tris-HCl, pH 7.5, 300 mM NaCl, 0.1 mM EGTA, 0.03% Brij-35, 270 mM sucrose, 1 mM benzamidine, 0.1% 2-mercaptoethanol, 0.2 mM PMSF.
PDKtide (Substrate for CDK9):
Synthetic peptide substrate with sequence of [[…]] (SEQ ID NO. 3), MW=4771.4.

The next test has as its system HDAC. Description: HDAC fluorimetric assay kit (AK-500, Biomol), HeLa nuclear extract. The procedure: HDAC inhibitors were screened using an HDAC fluorimetric assay kit (AK-500, Biomol, Plymouth Meeting, Pa.). […] Each assay was setup as follows: Defrosted all kit components and kept on ice until use. Diluted HeLa nuclear extract 1:29 in Assay Buffer (50 mM Tris/Cl, pH 8.0, 137 mM NaCl, 2.7 mM KCl, 1 mM MgCl2). Prepared dilutions of Trichostatin A (TSA, positive control) and tested compounds in assay buffer (5× of final concentration). Diluted Fluor de LysTM Substrate in assay buffer to 100 uM (50 fold=2× final). Diluted Fluor de LysTM developer concentrate 20-fold (e.g. 50 μl plus 950 μl Assay Buffer) in cold assay buffer. Second, diluted the 0.2 mM Trichostatin A 100-fold in the 1× Developer (e.g. 10 μl in 1 ml; final Trichostatin A concentration in the 1× Developer=2 μM; final concentration after addition to HDAC/Substrate reaction=1 μM). Added Assay buffer, diluted trichostatin A or test inhibitor to appropriate wells of the microtiter plate. Added diluted HeLa extract or other HDAC sample to all wells except for negative controls. Allowed diluted Fluor de LysTM Substrate and the samples in the microtiter plate to equilibrate to assay temperature (e.g. 25 or 37° C. Initiated HDAC reactions by adding diluted substrate (25 μl) to each well and mixing thoroughly. Allowed HDAC reactions to proceed for 1 hour and then stopped them by addition of Fluor de LysTM Developer (50 μl). Incubated plate at room temperature (25° C.) for 10-15 min. Read samples in a microtiter-plate reading fluorimeter capable of excitation at a wavelength in the range 350-380 nm and detection of emitted light in the range 440-460 nm.

The target of another test is T2, CDK6/cyclinD3 (Homo sapiens, UniProt Q00534).
T2 construct: N-terminal, 6His-tagged full-length human cdk6 (MW=38 kDa); 6His (N); made in house; host or cells: Sf21 cells
T2 sequence (Q00534 whole entry): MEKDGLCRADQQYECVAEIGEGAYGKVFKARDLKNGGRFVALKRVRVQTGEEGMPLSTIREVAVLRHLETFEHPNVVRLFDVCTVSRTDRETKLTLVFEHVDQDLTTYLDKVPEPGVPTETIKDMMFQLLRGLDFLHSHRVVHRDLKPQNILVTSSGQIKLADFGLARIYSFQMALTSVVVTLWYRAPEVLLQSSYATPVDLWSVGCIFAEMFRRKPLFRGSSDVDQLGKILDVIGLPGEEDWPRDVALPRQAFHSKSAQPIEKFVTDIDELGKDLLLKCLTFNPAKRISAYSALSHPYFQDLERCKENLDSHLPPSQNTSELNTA
T2 sequence (P30281 whole entry partner): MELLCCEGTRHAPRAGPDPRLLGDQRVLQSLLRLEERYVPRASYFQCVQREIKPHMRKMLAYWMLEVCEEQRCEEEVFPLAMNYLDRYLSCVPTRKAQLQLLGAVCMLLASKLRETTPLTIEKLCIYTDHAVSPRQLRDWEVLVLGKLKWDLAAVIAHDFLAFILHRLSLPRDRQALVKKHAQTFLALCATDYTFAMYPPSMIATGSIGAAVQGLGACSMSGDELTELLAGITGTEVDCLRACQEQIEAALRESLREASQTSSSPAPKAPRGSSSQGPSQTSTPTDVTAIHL
In words: CDK activity assay with p33 ATP, CDK6/cyclinD3. Conditions: 1 μM ATP; read-out: CDK6/cyclinD IC50. The procedure: CDK6/cyclinD3 (Accession Number for CDK6; GenBank X66365, for Cyclin D3; EMBL M90814):
N-terminal, 6His-tagged full-length human cdk6 (MW=38 kDa) complexed with N-terminal GST-tagged full-length human cyclin D3 (MW=59 kDa) were expressed in Sf21 cells. Recombinant protein complex was purified using glutathione-agarose and activated with CAK, and repurified with Ni2+/NTA-agarose column. Purity was measured to be at least 68%. Specific Activity was measured to be 39 U/mg, where one unit of cdk6/cyclinD3 activity is defined as 1 nmol phosphate incorporated into 0.1 mg/ml histone H1 per minute at 30° C. with a final ATP concentration of 100 μM. Enzyme was stored at concentration of 0.1 mg/ml in 50 mM Tris-HCl, pH 7.5, 270 mM sucrose, 150 mM NaCl, 1 mM benzamidine, 0.2 mM PMSF, 0.1% 2-mercaptoethanol, 0.1 mM EGTA, 0.03% Brij 35.

A further test deals with T3, CDK3/cyclinE (Homo sapiens, UniProt Q00526).
T3 construct: C-terminal 6His-tagged recombinant human full-length cdk3 (MW=36 kDa); 6His (C); made in house; host or cells: Sf21 insect cells (baculovirus)
T3 sequence (Q00526 whole entry): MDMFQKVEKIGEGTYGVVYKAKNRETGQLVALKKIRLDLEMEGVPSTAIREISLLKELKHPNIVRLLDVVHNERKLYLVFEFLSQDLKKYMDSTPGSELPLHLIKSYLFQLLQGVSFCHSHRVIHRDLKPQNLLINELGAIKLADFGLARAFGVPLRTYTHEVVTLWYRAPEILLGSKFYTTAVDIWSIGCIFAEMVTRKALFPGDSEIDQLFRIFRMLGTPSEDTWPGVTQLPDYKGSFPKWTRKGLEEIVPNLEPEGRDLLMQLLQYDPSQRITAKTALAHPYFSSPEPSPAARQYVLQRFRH
T3 sequence (P24864 whole entry partner): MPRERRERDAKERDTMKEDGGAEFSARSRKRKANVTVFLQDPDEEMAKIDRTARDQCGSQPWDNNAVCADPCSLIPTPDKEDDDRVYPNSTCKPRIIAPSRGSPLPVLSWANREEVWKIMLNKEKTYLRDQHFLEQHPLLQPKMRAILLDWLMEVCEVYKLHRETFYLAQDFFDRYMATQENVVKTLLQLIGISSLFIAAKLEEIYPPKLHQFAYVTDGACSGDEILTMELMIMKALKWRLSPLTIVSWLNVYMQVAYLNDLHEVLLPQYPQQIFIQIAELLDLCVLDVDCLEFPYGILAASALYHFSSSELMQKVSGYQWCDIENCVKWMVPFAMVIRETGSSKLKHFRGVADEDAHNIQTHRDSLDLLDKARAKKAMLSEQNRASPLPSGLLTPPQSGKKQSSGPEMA
In words: CDK activity assay with p33 ATP, CDK3/cyclinE. Conditions: 1 μM ATP. The method, then: CDK3/cyclinE (Accession Number for CDK3; GenBank X66357, for Cyclin E; GenBank NM_001238):
C-terminal 6His-tagged recombinant human full-length cdk3 (MW=36 kDa) were coexpressed with N-terminal GST-tagged recombinant human full-length cyclin E (MW=74 kDa) with baculovirus system in Sf21 insect cells. Recombinant protein complex was purified using Ni2+/NTA agarose and with purity to be 66% by SDS PAGE and Coomassie blue staining. Specific Activity of recombinant enzyme was measured to be 861 U/mg, where one unit of cdk3/cyclinE activity is defined as 1 nmol phosphate incorporated into 0.1 mg/ml histone H1 per minute at 30° C. with a final ATP concentration of […]. Enzyme was stored at a concentration of 0.1 mg/ml in 50 mM Tris/HCl pH7.5, 150 mM NaCl 0.1 mM EGTA, 0.03% Brij 35, 270 mM sucrose, 1 mM benzamidine, 0.2 mM PMSF, 0.1% 2-mercaptoethanol.

Take `CC(C)(C)c1cnc(CSc2cnc(NC(=O)CCCCCCC(=O)NO)s2)o1` [Compound 8, N^1-(5-((5-tert-butyloxazol-2-yl)methylthio)thiazol-2-yl)-N^8-hydroxyoctanediamide]: the pIC50 on CDK9/cyclinT1 is above 7.00; with HDAC it was above 7.00; on CDK6/cyclinD3, 6.00 to 7.00; against CDK3/cyclinE it was above 7.00.
Regarding `CC(C)(C)c1cnc(CSc2cnc(NC(=O)Cc3ccc(OCCCC(=O)NO)cc3)s2)o1` [Compound 9, 4-(4-(2-(5-((5-tert-butyloxazol-2-yl)methylthio)thiazol-2-ylamino)-2-oxoethyl)phenoxy)-N-hydroxybutanamide], the pIC50 at CDK9/cyclinT1 was above 7.00; with HDAC, 6.00 to 7.00; on CDK6/cyclinD3, 6.00 to 7.00; against CDK3/cyclinE, above 7.00.
Regarding `CC(C)(C)c1cnc(CSc2cnc(NC(=O)C3CCN(c4ncc(C(=O)NO)cn4)CC3)s2)o1` [Compound 20, 2-(4-(5-((5-tert-butyloxazol-2-yl)methylthio)thiazol-2-ylcarbamoyl)piperidin-1-yl)-N-hydroxypyrimidine-5-carboxamide], the pIC50 is above 7.00 against CDK9/cyclinT1, above 7.00 with HDAC, 5.00 to 6.00 at CDK6/cyclinD3 and above 7.00 on CDK3/cyclinE.
